Source: patent US20230123334A1, “AMINO LIPID COMPOUND, PREPARATION METHOD THEREFOR, AND APPLICATION THEREOF” (SHENZHEN SHENXIN BIOTECHNOLOGY CO., LTD., priority 2020, published 2023)

Tested on: HEK293 cells
Assay: Preliminary screening as mRNA vectors, EGFP mRNA transfection of HEK293 cells
Format: cell-based
Conditions: EGFP mRNA 50 ng per well, 96-well plates; percentage of GFP fluorescent cells relative to total number of cells (Hoechst)
Procedure, shortened: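 Screening format: EGFP mRNA transfection (50 ng/well) into HEK293 in 10% FBS-supplemented DMEM. Percent green fluorescent cells, normalised to Hoechst nuclear count, gave the value; Lipofectamine2000 was the reference transfectant.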

| Compound | Absolute mRNA transfection efficiency in HEK293 cells |
| --- | --- |
| CCCCCCCCCCCCCCCCNc1nc(NCCN2CCCCC2)nc(SCCCCCCCCCCC)n1 [Compound D4S11N16] | 12.3% |
| CCCCCCCCCCCSc1nc(NCCCCCC)nc(NCCN(CC)CC)n1 [Compound D7S11N6] | 4.3% |
| CCCCCCCCCCCCCCSc1nc(NCCN2CCN(C)CC2)nc(N(CCCCCCCCCCCC)CCCCCCCCCCCC)n1 [D5S14^2N12] | 0.9% |
| CCCCCCCCCCCCCCCCCCNc1nc(NCCN2CCN(C)CC2)nc(SCCCCCCCCCC)n1 [Compound D5S10N18] | 2.3% |
| CCCCCCCCCCCCCCCSc1nc(NCCCCCCCCCCCCC)nc(NCCN2CCOCC2)n1 [Compound D2S15N13] | 0.1% |
| CCCCCCCCCSc1nc(NCCCCCC)nc(NCCN2CCCCC2)n1 [Compound D4S9N6] | 0.3% |
| CCCCCCCCCCCCCNc1nc(NCCN2CCN(C)CC2)nc(SCCCCCCCCC)n1 [Compound D5S9N13] | 41.5% |
| CCCCCCCCCCCCCCCCSc1nc(NCCCCCCCCCCCCCCC)nc(NCCCN2CCN(C)CC2)n1 [Compound D9S16N15] | 0.2% |
| CCCCCCCCCCCSc1nc(NCCCCCC)nc(NCCN2CCN(C)CC2)n1 [Compound D5S11N6] | 26.9% |
| CCCCCCCCCCCCSc1nc(NCCN(CC)CC)nc(SCCCCCCCC)n1 [Compound D7S8S12] | 1.3% |
| CCCCCCCCCCCCCCCNc1nc(NCCN2CCCC2)nc(SCCCCCC)n1 [Compound D3S6N15] | 14.4% |
| CCCCCCCCCCCCCNc1nc(NCCN(C)C)nc(SCCCCCC)n1 [Compound D1S6N13] | 1.8% |
| CCCCCCCCSc1nc(NCCCCCCC)nc(NCCN(CC)CC)n1 [Compound D7S8N7] | 0.7% |
| CCCCCCCCCCCCSc1nc(NCCN2CCOCC2)nc(SCCCCCCC)n1 [Compound D2S7S12] | 19.2% |
| CCCCCCCCCCCNc1nc(NCCCN(C)C)nc(SCCCCCCC)n1 [Compound D6S7N11] | 18.9% |
| CCCCCCCCCCCCCCCCSc1nc(NCCCCCCCCCCCC)nc(NCC2CCN(C)CC2)n1 [Compound D10S16N12] | 9.2% |
| CCCCCCCCCCCCCCSc1nc(NCCN2CCCCC2)nc(SCCCCCCC)n1 [Compound D4S7S14] | 8.3% |
| CCCCCCCCCNc1nc(NCCN2CCOCC2)nc(SCCCCCC)n1 [Compound D2S6N9] | 0.8% |
| CCCCCCCCCCCCCCCSc1nc(NCCCCCCCC)nc(NCCN(CC)CC)n1 [Compound D7S15N8] | 18.0% |
| CCCCCCCCCCCCCCCCCCSc1nc(NCCCCCCCCCCCCCCCC)nc(NCCN(C)C)n1 [Compound D1S18N16] | 0.1% |
| CCCCCCCCCCCNc1nc(NCCCN2CCOCC2)nc(SCCCCCCCCCCC)n1 [Compound D8S11N11] | 3.6% |
| CCCCCCCCCCCCNc1nc(NCCN2CCOCC2)nc(SCCCCCCC)n1 [Compound D2S7N12] | 3.0% |
| CCCCCCCCSc1nc(NCCN(C)C)nc(SCCCCCCCC)n1 [Compound D1S8S8] | 11.7% |

| Compound | Absolute mRNA transfection efficiency in HEK293 cells |
| --- | --- |
| CCCCCCCCCCCNc1nc(NCCCN2CCOCC2)nc(SCCCCCCC)n1 [Compound D8S7N11] | 20.1% |
| CCCCCCCCCCCCCCCSc1nc(NCCCCCCCCC)nc(NCCN2CCN(C)CC2)n1 [Compound D5S15N9] | 22.3% |
| CCCCCCCCCCCCCCCSc1nc(NCCCCCCC)nc(NCCCN2CCN(C)CC2)n1 [Compound D9S15N7] | 15.9% |
| CCCCCCCCSc1nc(NCCN2CCCC2)nc(SCCCCCCCC)n1 [Compound D3S8S8] | 26.1% |
| CCCCCCCCCCCCN(CCCCCCCCCCCC)c1nc(NCC2CCN(C)CC2)nc(SCCCCCCCCCC)n1 [D10S10^2N12] | 0.2% |
| CCCCCCCCCCCCCCCCCCSc1nc(NCCCCCCCCC)nc(NCCCN(C)C)n1 [Compound D6S18N9] | 40.1% |
| CCCCCCCCSc1nc(NCCCCCCC)nc(NCCN(C)C)n1 [Compound D1S8N7] | 2.0% |
| CCCCCCCCCCCCCCCSc1nc(NCCCCCCCCC)nc(NCCCN2CCOCC2)n1 [Compound D8S15N9] | 1.1% |
| CCCCCCSc1nc(NCCN2CCN(C)CC2)nc(SCCCCCC)n1 [Compound D5S6S6] | 4.3% |
| CCCCCCCCCCCCN(CCCCCCCCCCCC)c1nc(NCCCN2CCN(C)CC2)nc(SCCCCCCC)n1 [D9S7^2N12] | 1.0% |
| CCCCCCCCCNc1nc(NCCN(C)C)nc(SCCCCCCC)n1 [Compound D1S7N9] | 10.0% |
| CCCCCCCCCCCCCCSc1nc(NCCCN2CCN(C)CC2)nc(N(CCCCCCCCCCCC)CCCCCCCCCCCC)n1 [D9S14^2N12] | 0.1% |
| CCCCCCCCCCCCSc1nc(NCCN2CCOCC2)nc(SCCCCCCCC)n1 [Compound D2S8S12] | 1.1% |
| CCCCCCCCCNc1nc(NCCN2CCCCC2)nc(SCCCCCC)n1 [Compound D4S6N9] | 1.1% |
| CCCCCCCCCCCCCCCSc1nc(NCCCCCCCCCCC)nc(NCCN2CCN(C)CC2)n1 [Compound D5S15N11] | 12.7% |
| CCCCCCCCCCCCCCCCCCSc1nc(NCCCN(C)C)nc(SCCCCCCC)n1 [Compound D6S7S18] | 22.0% |
| CCCCCCCCCCCCCCCSc1nc(NCCCCCCCC)nc(NCCN2CCOCC2)n1 [Compound D2S15N8] | 2.2% |
| CCCCCCCCCCCCCCCCCCSc1nc(NCCCCCCCC)nc(NCCN(C)C)n1 [Compound D1S18N8] | 38.0% |
| CCCCCCCCCCCCCCCCCCSc1nc(NCCCCCC)nc(NCCN2CCN(C)CC2)n1 [Compound D5S18N6] | 73.2% |
| CCCCCCCCCCCCCCCCNc1nc(NCCCN(C)C)nc(SCCCCCCCCCCCCCCCC)n1 [Compound D6S16N16] | 0.1% |
| CCCCCCCCCCCCCCCNc1nc(NCCCN(C)C)nc(SCCCCCCCCC)n1 [Compound D6S9N15] | 36.5% |
| CCCCCCCCCCCCSc1nc(NCC2CCN(C)CC2)nc(SCCCCCC)n1 [Compound D10S6S12] | 41.2% |
| CCCCCCCCCCCCN(CCCCCCCCCCCC)c1nc(NCCN(CC)CC)nc(SCCCCCC)n1 [D7S6^2N12] | 0.2% |

| Compound | Absolute mRNA transfection efficiency in HEK293 cells |
| --- | --- |
| CCCCCCCCCCCCCCCCCCNc1nc(NCC2CCN(C)CC2)nc(SCCCCCC)n1 [Compound D10S6N18] | 41.4% |
| CCCCCCCCCCCCCCCNc1nc(NCC2CCN(C)CC2)nc(SCCCCCCC)n1 [Compound D10S7N15] | 67.3% |
| CCCCCCCCCCCCCNc1nc(NCCN2CCCC2)nc(SCCCCCCCC)n1 [Compound D3S8N13] | 35.8% |
| CCCCCCCCCCCCN(CCCCCCCCCCCC)c1nc(NCCN(C)C)nc(SCCCCCCCC)n1 [D1S8^2N12] | 0.4% |
| CCCCCCCCCCCCCCCCNc1nc(NCCN2CCCCC2)nc(SCCCCCCCCCC)n1 [Compound D4S10N16] | 14.7% |
| CCCCCCCCCCCCSc1nc(NCCN2CCCC2)nc(N(CCCCCCCCCCCC)CCCCCCCCCCCC)n1 [D3S12^2N12] | 2.2% |
| CCCCCCCCCCCCCCSc1nc(NCCCCCCCC)nc(NCCN2CCCC2)n1 [Compound D3S14N8] | 55.2% |
| CCCCCCCCCCCCCCCCCCSc1nc(NCCN2CCCCC2)nc(SCCCCCCC)n1 [Compound D4S7S18] | 4.5% |
| CCCCCCCCCCCCCCCCCCSc1nc(NCCCCCCCC)nc(NCCN(CC)CC)n1 [Compound D7S18N8] | 9.8% |
| CCCCCCCCCCCCCCCCSc1nc(NCCCCCCCCCCC)nc(NCCCN2CCN(C)CC2)n1 [Compound D9S16N11] | 68.4% |
| CCCCCCCCCCCSc1nc(NCCCCCCCCC)nc(NCCCN2CCOCC2)n1 [Compound D8S11N9] | 1.6% |
| CCCCCCCCCCCCCCCSc1nc(NCCCCCCCCCCCC)nc(NCCCN2CCN(C)CC2)n1 [Compound D9S15N12] | 4.4% |
| CCCCCCCCCCCCCCCCSc1nc(NCCN(CC)CC)nc(SCCCCCC)n1 [Compound D7S6S16] | 2.3% |
| CCCCCCCCCSc1nc(NCCCCCCC)nc(NCCN2CCOCC2)n1 [Compound D2S9N7] | 4.2% |
| CCCCCCCCCCCSc1nc(NCCCN2CCN(C)CC2)nc(SCCCCCCC)n1 [Compound D9S7S11] | 80.0% |
| CCCCCCCCSc1nc(NCCCN(C)C)nc(SCCCCCCC)n1 [Compound D6S7S8] | 6.3% |
| CCCCCCCCCCCCN(CCCCCCCCCCCC)c1nc(NCCCN(C)C)nc(SCCCCCCCCCCC)n1 [D6S11^2N12] | 3.2% |
| CCCCCCCCCCCCCCCCCCSc1nc(NCCN(C)C)nc(N(CCCCCCCCCCCC)CCCCCCCCCCCC)n1 [D1S18^2N12] | 0.0% |
| CCCCCCCNc1nc(NCCN(CC)CC)nc(SCCCCCCC)n1 [Compound D7S7N7] | 3.9% |
| CCCCCCCCCCCCCCCCSc1nc(NCCN(CC)CC)nc(N(CCCCCCCCCCCC)CCCCCCCCCCCC)n1 [D7S16^2N12] | 0.8% |
| CCCCCCCSc1nc(NCCN(C)C)nc(SCCCCCCC)n1 [Compound D1S7S7] | 14.9% |
